# Test results from ChEMBL document CHEMBL1201862, “PubChem BioAssay data set” (2004).
#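 48-hour exposure; five concentrations; linearly interpolated endpoints. Abbreviation: GI50, concentration required for 50% inhibition of growth.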 The source made the active and inactive calls. No stated cut-off is given here; in the data, active = GI50 up to about 1.1 µM and inactive = higher.
# Legend:
# Assay in all cases: NCI anticancer screen, dose series, 48 h
# RPMI-8226 = test system: RPMI-8226
# KM12 = test system: KM12
# OVCAR-8 = test system: OVCAR-8
# MDA-MB-231 = test system: MDA-MB-231
# SF-539 = test system: SF-539
# IGROV-1 = test system: IGROV-1
# NCI-H23 = test system: NCI-H23
# ACHN = test system: ACHN
# HCC 2998 = test system: HCC 2998
# HOP-92 = test system: HOP-92
# U-251 = test system: U-251
# SNB-75 = test system: SNB-75
# NCI/ADR-RES = test system: NCI/ADR-RES
# A549 = test system: A549
# HT-29 = test system: HT-29
# SN12C = test system: SN12C
# OVCAR-3 = test system: OVCAR-3
# K562 = test system: K562
# BT-549 = test system: BT-549
SMILES,GI50 (RPMI-8226),GI50 (KM12),GI50 (OVCAR-8),GI50 (MDA-MB-231),GI50 (SF-539),GI50 (IGROV-1),GI50 (NCI-H23),GI50 (ACHN),GI50 (HCC 2998),GI50 (HOP-92),GI50 (U-251),GI50 (SNB-75),GI50 (NCI/ADR-RES),GI50 (A549),GI50 (HT-29),GI50 (SN12C),GI50 (OVCAR-3),GI50 (K562),GI50 (BT-549)
CN1c2ccccc2C(=O)NC12CCN(Cc1ccccc1)CC2,47.2 µM (inactive),46 µM (inactive),69.2 µM (inactive),96.6 µM (inactive),50.7 µM (inactive),69.2 µM (inactive),> 100 µM (inactive),31.2 µM (inactive),83.6 µM (inactive),18.3 µM (inactive),40.1 µM (inactive),75 µM (inactive),> 100 µM (inactive),56.9 µM (inactive),27.6 µM (inactive),49.4 µM (inactive),,,
O=[N+]([O-])C(/C=C(\Cl)n1nnc2ccccc21)=C(/Cl)n1nnc2ccccc21,> 100 µM (inactive),> 100 µM (inactive),,> 100 µM (inactive),> 100 µM (inactive),> 100 µM (inactive),> 100 µM (inactive),> 100 µM (inactive),> 100 µM (inactive),> 100 µM (inactive),> 100 µM (inactive),,> 100 µM (inactive),> 100 µM (inactive),> 100 µM (inactive),> 100 µM (inactive),> 100 µM (inactive),> 100 µM (inactive),
CC(=O)Nc1ccc2c(C)c3c4ccccc4n(C)c3nc2n1,,11.9 µM (inactive),17.9 µM (inactive),18.7 µM (inactive),29.3 µM (inactive),28.1 µM (inactive),19.3 µM (inactive),8.55 µM (inactive),16.4 µM (inactive),,,14.4 µM (inactive),22.3 µM (inactive),16 µM (inactive),14.8 µM (inactive),16.4 µM (inactive),26.1 µM (inactive),,31.3 µM (inactive)
CC(=O)O[C@@H]1C(=O)N(c2ccccc2)[C@@H]1c1cc2ccccc2c2ccccc12,21.3 µM (inactive),20.3 µM (inactive),24.5 µM (inactive),20.3 µM (inactive),25.4 µM (inactive),21.6 µM (inactive),20.2 µM (inactive),29.6 µM (inactive),25.7 µM (inactive),20.8 µM (inactive),43.1 µM (inactive),,33.9 µM (inactive),21.5 µM (inactive),29 µM (inactive),34.4 µM (inactive),23.2 µM (inactive),36.6 µM (inactive),
Cc1cc(Cl)cc2c1NC(=O)/C2=N\Nc1ccccc1[N+](=O)[O-],> 100 µM (inactive),> 100 µM (inactive),,66.8 µM (inactive),> 100 µM (inactive),19.1 µM (inactive),40.5 µM (inactive),> 100 µM (inactive),> 100 µM (inactive),27 µM (inactive),> 100 µM (inactive),> 100 µM (inactive),,> 100 µM (inactive),,> 100 µM (inactive),> 100 µM (inactive),> 100 µM (inactive),> 100 µM (inactive)
COc1ccc2c(c1)CC1NC2Cc2ccccc21 (stereo unspecified),> 100 µM (inactive),> 100 µM (inactive),> 100 µM (inactive),,> 100 µM (inactive),> 100 µM (inactive),> 100 µM (inactive),> 100 µM (inactive),> 100 µM (inactive),,> 100 µM (inactive),> 100 µM (inactive),,> 100 µM (inactive),> 100 µM (inactive),> 10 µM (inactive),> 100 µM (inactive),> 100 µM (inactive),
COc1cc(/C=C2\CCC(C)C3C2=NN(C(C)=O)C3c2cc(OC)c(OC)c(OC)c2)cc(OC)c1OC (stereo unspecified),36.7 µM (inactive),> 33 µM (inactive),> 100 µM (inactive),> 72.9 µM (inactive),> 100 µM (inactive),3.13 µM (inactive),> 100 µM (inactive),25.1 µM (inactive),> 100 µM (inactive),> 100 µM (inactive),> 85.5 µM (inactive),15.8 µM (inactive),,> 100 µM (inactive),> 100 µM (inactive),> 100 µM (inactive),> 100 µM (inactive),> 100 µM (inactive),> 100 µM (inactive)
CCOC(=O)c1cc(/C=C/C(C)=C/C(=O)OC)oc1C,> 100 µM (inactive),> 100 µM (inactive),> 100 µM (inactive),,> 100 µM (inactive),> 100 µM (inactive),> 100 µM (inactive),> 100 µM (inactive),,> 100 µM (inactive),> 100 µM (inactive),> 100 µM (inactive),,> 100 µM (inactive),> 100 µM (inactive),,> 100 µM (inactive),> 100 µM (inactive),
O=c1cn[nH]c(=S)n1/N=C/c1c[nH]c2ccccc12,49.5 µM (inactive),> 100 µM (inactive),32.8 µM (inactive),,> 100 µM (inactive),0.564 µM (active),,> 100 µM (inactive),> 100 µM (inactive),,> 100 µM (inactive),,> 100 µM (inactive),> 100 µM (inactive),> 100 µM (inactive),,> 100 µM (inactive),48 µM (inactive),72.6 µM (inactive)
COc1cc(Cn2c3c(c4cc(O)ccc42)Cc2ccccc2C3=O)cc(OC)c1,5.62 µM (inactive),39.2 µM (inactive),59.6 µM (inactive),31 µM (inactive),37.3 µM (inactive),44.8 µM (inactive),> 100 µM (inactive),,,,57.3 µM (inactive),15.5 µM (inactive),21.3 µM (inactive),74 µM (inactive),37.1 µM (inactive),24.7 µM (inactive),> 100 µM (inactive),44.7 µM (inactive),> 100 µM (inactive)
Brc1cccc(C2SCc3nc4ccccc4n32)c1 (stereo unspecified),12.5 µM (inactive),16.1 µM (inactive),22.5 µM (inactive),,20.8 µM (inactive),21.7 µM (inactive),13.9 µM (inactive),16.3 µM (inactive),,11.1 µM (inactive),17 µM (inactive),0.0533 µM (active),,32.7 µM (inactive),20.6 µM (inactive),13.8 µM (inactive),15.2 µM (inactive),9.98 µM (inactive),
O=c1[nH]nc(-c2ccc3ccccc3c2)[nH]1,> 100 µM (inactive),36.2 µM (inactive),> 100 µM (inactive),,> 100 µM (inactive),70.3 µM (inactive),> 100 µM (inactive),> 100 µM (inactive),> 100 µM (inactive),,> 100 µM (inactive),22.9 µM (inactive),> 100 µM (inactive),> 100 µM (inactive),> 100 µM (inactive),> 100 µM (inactive),> 100 µM (inactive),> 100 µM (inactive),> 100 µM (inactive)
CCOC(=O)C(O)(NC(=O)Nc1ccc(F)cc1)C(F)(F)F (stereo unspecified),> 100 µM (inactive),,> 100 µM (inactive),,> 100 µM (inactive),> 100 µM (inactive),> 100 µM (inactive),> 100 µM (inactive),> 100 µM (inactive),,> 100 µM (inactive),> 100 µM (inactive),> 100 µM (inactive),> 100 µM (inactive),> 100 µM (inactive),> 100 µM (inactive),,> 100 µM (inactive),> 100 µM (inactive)
COC(=O)c1c(O)ccc2c1c1cc3ccccc3cc1n2Cc1cc(OC)cc(OC)c1,1.96 µM (inactive),0.805 µM (active),6.38 µM (inactive),6.55 µM (inactive),1.86 µM (inactive),0.678 µM (active),4.53 µM (inactive),1.74 µM (inactive),3.88 µM (inactive),11.7 µM (inactive),4.45 µM (inactive),2.51 µM (inactive),1.4 µM (inactive),3.37 µM (inactive),11 µM (inactive),7.85 µM (inactive),0.339 µM (active),1.96 µM (inactive),
Cc1ccccc1NC(=O)/C(C#N)=N\Nc1[nH]cnc1C(N)=O,1.83 µM (inactive),28.6 µM (inactive),1.51 µM (inactive),7.46 µM (inactive),,4.88 µM (inactive),32.6 µM (inactive),5.28 µM (inactive),2.92 µM (inactive),,37.1 µM (inactive),54.5 µM (inactive),2.45 µM (inactive),> 100 µM (inactive),38.6 µM (inactive),5 µM (inactive),2.42 µM (inactive),1.89 µM (inactive),> 100 µM (inactive)
O=c1[nH]nc(Cc2ccccc2)n1/N=C/c1ccc(/C=N/n2c(Cc3ccccc3)n[nH]c2=O)cc1,> 100 µM (inactive),> 100 µM (inactive),> 100 µM (inactive),38.8 µM (inactive),,> 100 µM (inactive),> 100 µM (inactive),> 100 µM (inactive),,,57.3 µM (inactive),,> 100 µM (inactive),> 100 µM (inactive),> 100 µM (inactive),> 100 µM (inactive),> 100 µM (inactive),20.2 µM (inactive),> 100 µM (inactive)
CCOC(=O)C(=CNC(=S)N/N=C1\C(=O)Nc2ccccc21)C(=O)OCC,> 100 µM (inactive),52 µM (inactive),89.9 µM (inactive),> 100 µM (inactive),> 100 µM (inactive),,> 100 µM (inactive),> 100 µM (inactive),> 100 µM (inactive),82 µM (inactive),> 100 µM (inactive),21.5 µM (inactive),48.2 µM (inactive),> 100 µM (inactive),84.3 µM (inactive),> 100 µM (inactive),46.2 µM (inactive),> 100 µM (inactive),
